Test results published in US20260207602A1, “EGFR INHIBITORS” (Blueprint Medicines Corporation, priority 2022, published 2026).

What was measured:
[1] = molecular target: T1, EGFR (d746-750) (Homo sapiens, UniProt P00533, DEL746-750); assay: Biochemical EGFR inhibition assay (Caliper mobility shift), EGFR (d746-750); conditions: biochemical Caliper mobility shift assay, EGFR Exon 19-del enzyme; read-out: Enz EGFR Exon 19-del IC50
T1 construct: purchased SignalChem E10-122JG
Outline: (§1)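 Kinase activity measured as phosphorylation of 2.5 µM 5-FAM-labelled peptide substrate in 100 mM HEPES pH 7.5, 10 mM MgCl2, 0.015% Brij-35, 1 mM DTT, 1.0% DMSO, at 1.0 mM ATP or ATP Km. Run at 25 °C to 10–20% conversion, stopped with EDTA; product resolved by mobility shift, apparent IC50 from percent activity vs log concentration.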

[2] = molecular target: intracellular phosphorylation of EGFR (Tyr1068) in PC-9 cells (Homo sapiens, UniProt P00533, DEL746-750); assay: PC-9 pEGFR AlphaLISA assay; format: cell-based; conditions: 4 hours incubation, read-out: Phos EGFR PC9 IC50
Chain of intracellular phosphorylation of EGFR (Tyr1068) in PC-9 cells (P00533 with tags, fused parts or gaps DEL746-750): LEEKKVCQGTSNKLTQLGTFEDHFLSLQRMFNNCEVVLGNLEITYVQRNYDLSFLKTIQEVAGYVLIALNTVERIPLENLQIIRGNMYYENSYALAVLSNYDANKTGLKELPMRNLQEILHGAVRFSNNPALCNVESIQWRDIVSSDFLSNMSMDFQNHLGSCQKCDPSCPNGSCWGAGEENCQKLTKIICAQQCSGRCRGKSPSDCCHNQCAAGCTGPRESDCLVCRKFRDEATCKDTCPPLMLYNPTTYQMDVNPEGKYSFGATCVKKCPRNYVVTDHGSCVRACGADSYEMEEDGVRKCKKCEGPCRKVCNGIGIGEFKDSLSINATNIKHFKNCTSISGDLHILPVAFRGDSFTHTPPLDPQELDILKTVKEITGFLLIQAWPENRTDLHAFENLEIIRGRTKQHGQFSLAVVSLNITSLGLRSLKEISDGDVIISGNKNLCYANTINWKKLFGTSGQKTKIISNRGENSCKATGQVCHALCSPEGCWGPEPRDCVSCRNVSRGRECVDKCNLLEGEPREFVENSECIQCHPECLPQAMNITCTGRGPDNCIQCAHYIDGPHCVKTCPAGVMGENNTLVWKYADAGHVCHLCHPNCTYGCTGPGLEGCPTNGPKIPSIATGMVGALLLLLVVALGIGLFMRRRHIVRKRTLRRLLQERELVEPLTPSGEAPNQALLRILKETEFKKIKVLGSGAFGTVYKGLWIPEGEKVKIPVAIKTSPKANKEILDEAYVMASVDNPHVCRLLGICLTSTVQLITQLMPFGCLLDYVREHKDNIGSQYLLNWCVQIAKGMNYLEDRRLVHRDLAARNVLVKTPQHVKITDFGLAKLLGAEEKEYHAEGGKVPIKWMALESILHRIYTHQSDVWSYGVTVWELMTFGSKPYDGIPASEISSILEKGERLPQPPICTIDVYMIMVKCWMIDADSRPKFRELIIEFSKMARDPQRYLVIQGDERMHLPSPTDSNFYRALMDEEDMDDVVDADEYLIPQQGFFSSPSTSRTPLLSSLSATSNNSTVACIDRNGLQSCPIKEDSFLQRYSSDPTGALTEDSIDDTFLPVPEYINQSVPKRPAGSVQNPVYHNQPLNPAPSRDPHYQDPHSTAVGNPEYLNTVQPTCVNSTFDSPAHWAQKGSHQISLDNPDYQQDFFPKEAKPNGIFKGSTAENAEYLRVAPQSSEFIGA
Outline: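 PC-9 cells (EGFR del746-750) in phenol-free DMEM/10% FBS, adhered overnight, then exposed to 10-point 4-fold compound dilutions for 4 h at 37 °C. Lysates assayed for pEGFR Tyr1068 by AlphaLISA SureFire Ultra; IC50 from percent pEGFR inhibition vs log concentration.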

[3] = molecular target: T2, EGFR L858R (Homo sapiens, UniProt P00533, L858R); assay: Biochemical EGFR inhibition assay (Caliper mobility shift), EGFR L858R; conditions: biochemical Caliper mobility shift assay, EGFR L858R enzyme; read-out: Enz EGFR L858R IC50
T2 construct: purchased SignalChem E10-122BG
T2 sequence (P00533 25-1210 L858R): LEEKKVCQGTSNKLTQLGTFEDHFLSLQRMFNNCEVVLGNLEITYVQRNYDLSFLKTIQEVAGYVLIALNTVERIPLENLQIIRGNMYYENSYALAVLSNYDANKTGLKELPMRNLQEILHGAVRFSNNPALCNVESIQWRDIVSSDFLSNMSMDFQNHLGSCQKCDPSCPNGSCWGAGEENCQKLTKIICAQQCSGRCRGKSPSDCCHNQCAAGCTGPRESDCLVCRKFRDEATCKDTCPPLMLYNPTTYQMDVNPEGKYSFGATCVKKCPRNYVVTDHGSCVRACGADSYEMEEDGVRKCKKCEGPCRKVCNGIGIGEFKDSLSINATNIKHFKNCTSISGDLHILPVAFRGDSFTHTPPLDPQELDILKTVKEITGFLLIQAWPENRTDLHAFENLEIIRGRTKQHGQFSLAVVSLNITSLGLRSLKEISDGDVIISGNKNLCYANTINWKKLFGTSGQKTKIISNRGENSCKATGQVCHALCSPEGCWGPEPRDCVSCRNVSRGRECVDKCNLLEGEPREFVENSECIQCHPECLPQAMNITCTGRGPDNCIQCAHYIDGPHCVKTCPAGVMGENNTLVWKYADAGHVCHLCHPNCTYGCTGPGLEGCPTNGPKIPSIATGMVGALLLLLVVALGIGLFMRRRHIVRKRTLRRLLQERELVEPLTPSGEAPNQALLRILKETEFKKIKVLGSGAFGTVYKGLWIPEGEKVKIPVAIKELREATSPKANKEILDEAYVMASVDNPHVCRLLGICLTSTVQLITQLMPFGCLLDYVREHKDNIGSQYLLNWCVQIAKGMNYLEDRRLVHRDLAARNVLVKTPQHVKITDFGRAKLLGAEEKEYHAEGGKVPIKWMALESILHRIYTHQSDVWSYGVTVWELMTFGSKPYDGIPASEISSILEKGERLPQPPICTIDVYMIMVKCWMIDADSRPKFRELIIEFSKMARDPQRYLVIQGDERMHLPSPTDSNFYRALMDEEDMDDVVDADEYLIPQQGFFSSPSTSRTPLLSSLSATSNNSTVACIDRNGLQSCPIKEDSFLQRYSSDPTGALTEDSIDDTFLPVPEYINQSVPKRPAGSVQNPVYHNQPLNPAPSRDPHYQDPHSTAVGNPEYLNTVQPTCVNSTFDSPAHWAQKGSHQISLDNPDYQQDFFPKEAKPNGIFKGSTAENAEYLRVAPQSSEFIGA
Outline: as §1

T1 sequence (P00533 with tags, fused parts or gaps DEL746-750 limits assumed): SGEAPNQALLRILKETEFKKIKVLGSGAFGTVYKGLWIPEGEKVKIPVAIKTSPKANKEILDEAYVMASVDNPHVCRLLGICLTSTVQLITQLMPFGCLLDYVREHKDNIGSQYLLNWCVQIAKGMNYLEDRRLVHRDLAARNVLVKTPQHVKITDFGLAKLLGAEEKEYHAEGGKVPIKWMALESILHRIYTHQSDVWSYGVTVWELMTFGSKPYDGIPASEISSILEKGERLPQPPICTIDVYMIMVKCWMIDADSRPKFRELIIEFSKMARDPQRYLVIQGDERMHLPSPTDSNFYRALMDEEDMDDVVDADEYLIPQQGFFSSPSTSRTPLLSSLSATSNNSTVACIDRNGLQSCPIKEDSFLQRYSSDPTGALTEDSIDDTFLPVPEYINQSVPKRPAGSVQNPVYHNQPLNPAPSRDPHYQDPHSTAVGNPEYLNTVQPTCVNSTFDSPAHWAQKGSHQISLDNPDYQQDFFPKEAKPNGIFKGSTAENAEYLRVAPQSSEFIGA

| SMILES | IC50 [1] | IC50 [2] | IC50 [3] |
| --- | --- | --- | --- |
| Cc1ccnn1-c1cc(OC2CCOCC2)c2c(Nc3ccc4ncsc4c3)ncnc2c1 [Example 135, N-(7-(5-methyl-1H-pyrazol-1-yl)-5-((tetrahydro-2H-pyran-4-yl)oxy)quinazolin-4-yl)benzo[d]thiazol-6-amine] | 10.1 to 50 nM | > 50.1 nM | 10.1 to 50 nM |
| C[C@@H](Oc1cc(-c2cnn(C)c2)cc2ncnc(Nc3ccc4ncsc4c3F)c12)C1CCOCC1 (single isomer, unassigned) [Example 110] | ≤ 10 nM | 10.1 to 50 nM | ≤ 10 nM |
| CN1CC[C@@](C)(COc2cc(-c3cnn(C)c3)cc3ncnc(Nc4ccc5ncsc5c4)c23)C1=O (single isomer, unassigned) [Example 55] | ≤ 10 nM | 10.1 to 50 nM | ≤ 10 nM |
| Cn1cc(-c2cc(O[C@H]3CCNC[C@H]3F)c3c(Nc4ccc5ncsc5c4)ncnc3c2)c(OC(F)F)n1 [Example 366, N-(7-(3-(difluoromethoxy)-1-methyl-1H-pyrazol-4-yl)-5-(((3R,4S)-3-fluoropiperidin-4-yl)oxy)quinazolin-4-yl)benzo[d]thiazol-6-amine] | ≤ 10 nM | ≤ 10 nM | 10.1 to 50 nM |
| CN1CC[C@@H](Oc2cc(-c3cnn(C)c3)cc3ncnc(Nc4ccc5ncsc5c4)c23)C1 [Example 35, (R)-N-(7-(1-methyl-1H-pyrazol-4-yl)-5-((1-methylpyrrolidin-3-yl)oxy)quinazolin-4-yl)benzo[d]thiazol-6-amine] | ≤ 10 nM | 10.1 to 50 nM | 10.1 to 50 nM |
| CN1CCC[C@H](Oc2cc(-c3cn(C)n(C(F)F)c3=O)cc3ncnc(Nc4ccc5ncsc5c4)c23)C1 [Example 249, (S)-4-(4-(benzo[d]thiazol-6-ylamino)-5-((1-methylpiperidin-3-yl)oxy)quinazolin-7-yl)-2-(difluoromethyl)-1-methyl-1,2-dihydro-3H-pyrazol-3-one] | ≤ 10 nM | 10.1 to 50 nM | ≤ 10 nM |
| CN1C[C@H](F)C[C@@H](Oc2cc(-c3cnn(C)c3)cc3ncnc(Nc4ccc5ncsc5c4)c23)C1 (single isomer, unassigned) [Example 333] | ≤ 10 nM | 10.1 to 50 nM | ≤ 10 nM |
| C[C@@H](Oc1cc(N2CCN(C)CC2)cc2ncnc(Nc3ccc4ncsc4c3F)c12)[C@H]1CCCO1 [Example 115, 7-fluoro-N-(7-(4-methylpiperazin-1-yl)-5-((R)-1-((R)-tetrahydrofuran-2-yl)ethoxy)quinazolin-4-yl)benzo[d]thiazol-6-amine] | ≤ 10 nM | ≤ 10 nM | ≤ 10 nM |
| CN1CC[C@@H](Oc2cc(-c3cnn(C)c3)cc3ncnc(Nc4ccc5ncsc5c4)c23)[C@@H](F)C1 (single isomer, unassigned) [Example 340] | ≤ 10 nM | ≤ 10 nM | ≤ 10 nM |
| CN1CC[C@H](O)[C@@H](Oc2cc(-c3cnn(C)c3)cc3ncnc(Nc4ccc5ncsc5c4)c23)C1 (single isomer, unassigned) [Example A33] | ≤ 10 nM | ≤ 10 nM | ≤ 10 nM |
| Cn1cc(-c2cc(O[C@@H]3CCNC[C@H]3F)c3c(Nc4ccc5ncsc5c4F)ncnc3c2)cn1 [Example 348, 7-fluoro-N-(5-(((3R,4R)-3-fluoropiperidin-4-yl)oxy)-7-(1-methyl-1H-pyrazol-4-yl)quinazolin-4-yl)benzo[d]thiazol-6-amine] | ≤ 10 nM | ≤ 10 nM | ≤ 10 nM |
| C[C@H](CO)Oc1cc(N2CCN(C)CC2)cc2ncnc(Nc3ccc4ncsc4c3)c12 (single isomer, unassigned) [Example 293] | ≤ 10 nM | 10.1 to 50 nM | ≤ 10 nM |
| CN1CC[C@@H](F)[C@@H](Oc2cc(-c3cnn(C)c3)cc3ncnc(Nc4ccc5ncsc5c4)c23)C1 (single isomer, unassigned) [Example 161] | ≤ 10 nM | ≤ 10 nM | ≤ 10 nM |
| C[C@@H](Oc1cc(N2CCN(C)[C@@H](C)C2)cc2ncnc(Nc3ccc4ncsc4c3F)c12)C1COC1 (single isomer, unassigned) [Example 99] | ≤ 10 nM | 10.1 to 50 nM | 10.1 to 50 nM |
| COc1cc2ncnc(Nc3ccc4ncsc4c3)c2cc1-c1cnn([C@H]2CCN(C)C[C@@H]2F)c1 (racemic) [Example 169, trans-N-(6-(1-((3S,4S)-3-fluoro-1-methylpiperidin-4-yl)-1H-pyrazol-4-yl)-7-methoxyquinazolin-4-yl)benzo[d]thiazol-6-amine] | ≤ 10 nM | 10.1 to 50 nM | ≤ 10 nM |
| COc1cn(C)nc1-c1cc(OC2CCN(C)CC2)c2c(Nc3ccc4ncsc4c3)ncnc2c1 [Example 131, N-(7-(4-methoxy-1-methyl-1H-pyrazol-3-yl)-5-((1-methylpiperidin-4-yl)oxy)quinazolin-4-yl)benzo[d]thiazol-6-amine] | ≤ 10 nM | 10.1 to 50 nM | 10.1 to 50 nM |
| C[C@@H](Oc1cc(-c2cnn(C)c2)cc2ncnc(Nc3ccc4ncsc4c3)c12)C1CN(C)C1 (single isomer, unassigned) [Example 385] | ≤ 10 nM | ≤ 10 nM | ≤ 10 nM |
| CNC[C@@H](C)Oc1cc(-c2cnn(C)c2)cc2ncnc(Nc3ccc4ncsc4c3)c12 [Example 396, (R)-N-(7-(1-methyl-1H-pyrazol-4-yl)-5-((1-(methylamino)propan-2-yl)oxy)quinazolin-4-yl)benzo[d]thiazol-6-amine] | ≤ 10 nM | ≤ 10 nM | 10.1 to 50 nM |
| COc1cc2ncnc(Nc3ccc4ncsc4c3)c2cc1NC(=O)C1CCCN(C)C1 (stereo not drawn) [Example 401, N-(4-(benzo[d]thiazol-6-ylamino)-7-methoxyquinazolin-6-yl)-1-methylpiperidine-3-carboxamide] | 10.1 to 50 nM | 10.1 to 50 nM | 10.1 to 50 nM |
| COc1cc2ncnc(Nc3ccc4ncsc4c3)c2cc1-c1cnn(CC2CCN(C)CC2)c1 [Example 242, N-(7-methoxy-6-(1-((1-methylpiperidin-4-yl)methyl)-1H-pyrazol-4-yl)quinazolin-4-yl)benzo[d]thiazol-6-amine] | ≤ 10 nM | 10.1 to 50 nM | ≤ 10 nM |
| C[C@H](CN1CCC1)Oc1cc(-c2cnn(C)c2)cc2ncnc(Nc3ccc4ncsc4c3)c12 [Example 394, (R)-N-(5-((1-(azetidin-1-yl)propan-2-yl)oxy)-7-(1-methyl-1H-pyrazol-4-yl)quinazolin-4-yl)benzo[d]thiazol-6-amine] | ≤ 10 nM | ≤ 10 nM | ≤ 10 nM |
| Cn1cc(-c2cc(OC3CCCOC3)c3c(Nc4ccc5ncsc5c4)ncnc3c2)cn1 (single isomer, unassigned) [Example 7] | ≤ 10 nM | 10.1 to 50 nM | ≤ 10 nM |
| CN1CC[C@@H](Nc2cc3c(Nc4ccc5ncsc5c4)ncnc3cc2-c2ccn(C)n2)[C@H](F)C1 (single isomer, unassigned) [Example 327] | ≤ 10 nM | ≤ 10 nM | ≤ 10 nM |
| C[C@@H]1CN(C)CCN1c1cc(O[C@H](C)C2COC2)c2c(Nc3ccc4ncsc4c3F)ncnc2c1 (single isomer, unassigned) [Example 106, N-(7-((R)-2,4-dimethylpiperazin-1-yl)-5-((R)-1-(oxetan-3-yl)ethoxy)quinazolin-4-yl)-7-fluorobenzo[d]thiazol-6-amine or N-(7-((R)-2,4-dimethylpiperazin-1-yl)-5-((S)-1-(oxetan-3-yl)ethoxy)quinazolin-4-yl)-7-fluorobenzo[d]thiazol-6-amine] | ≤ 10 nM | 10.1 to 50 nM | ≤ 10 nM |
| C[C@H](CN(C)C)Oc1cc(N2CC[C@H](C(C)(C)O)C2)cc2ncnc(Nc3ccc4ncsc4c3)c12 [Example 181, 2-((S)-1-(4-(benzo[d]thiazol-6-ylamino)-5-(((R)-1-(dimethylamino)propan-2-yl)oxy)quinazolin-7-yl)pyrrolidin-3-yl)propan-2-ol] | ≤ 10 nM | ≤ 10 nM | ≤ 10 nM |
| C[C@H](Oc1cc(-c2cnn(C)c2)cc2ncnc(Nc3ccc4ncsc4c3)c12)C(F)(F)F [Example 68, (S)-N-(7-(1-methyl-1H-pyrazol-4-yl)-5-((1,1,1-trifluoropropan-2-yl)oxy)quinazolin-4-yl)benzo[d]thiazol-6-amine] | ≤ 10 nM | ≤ 10 nM | ≤ 10 nM |
| Cn1cc(-c2cc(O[C@H]3CNCC[C@@H]3O)c3c(Nc4ccc5ncsc5c4)ncnc3c2)cn1 (racemic) [Example A45, (3S,4S)-3-((4-(benzo[d]thiazol-6-ylamino)-7-(1-methyl-1H-pyrazol-4-yl)quinazolin-5-yl)oxy)piperidin-4-ol] | ≤ 10 nM | > 50.1 nM | 10.1 to 50 nM |
| COc1nn(C)cc1-c1cc(O[C@@H](C)C(=O)N(C)C)c2c(Nc3ccc4ncsc4c3F)ncnc2c1 (single isomer, unassigned) [Example 287] | ≤ 10 nM | ≤ 10 nM | ≤ 10 nM |
| COCCOc1cc(O[C@H](C)C2COC2)c2c(Nc3ccc4ncsc4c3F)ncnc2c1 (single isomer, unassigned) [Example 85] | ≤ 10 nM | 10.1 to 50 nM | ≤ 10 nM |
| C[C@@H](Oc1cc(-c2cnn(C)c2)cc2ncnc(Nc3ccc4ncsc4c3F)c12)C1CCOCC1 (single isomer, unassigned) [Example 111] | ≤ 10 nM | ≤ 10 nM | ≤ 10 nM |
